Results reported in publication PMC11548001, “Beware of N-Benzoyloxybenzamides” (Molecules, 2024).

Assays:
acid ceramidase [1] = biological target: T1, acid ceramidase (Homo sapiens, UniProt Q13510); test: in-house cell lysate acid ceramidase inhibition assay (HEK293 cell lysate, RBM14-C12 substrate); type: biochemical
T1 construct: if using cell lysate, each well contained 7.45 µL assay buffer; endogenous in cells; host or cells: HEK293 cell lysate (supernatant after freeze-thaw and homogenisation)
T1 sequence (Q13510 22-395): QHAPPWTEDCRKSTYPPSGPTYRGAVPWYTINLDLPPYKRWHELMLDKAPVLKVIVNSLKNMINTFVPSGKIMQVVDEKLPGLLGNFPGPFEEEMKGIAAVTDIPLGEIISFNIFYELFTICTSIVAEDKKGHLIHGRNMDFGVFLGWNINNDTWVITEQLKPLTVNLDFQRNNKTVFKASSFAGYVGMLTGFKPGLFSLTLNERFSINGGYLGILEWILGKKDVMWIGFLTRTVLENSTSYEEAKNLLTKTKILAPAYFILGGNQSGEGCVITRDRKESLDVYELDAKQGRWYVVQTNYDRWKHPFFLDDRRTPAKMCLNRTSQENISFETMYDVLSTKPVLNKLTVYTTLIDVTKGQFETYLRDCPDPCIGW
Method: (§1) Cultured HEK293 cells were grown until 80-90% confluency, collected, and washed twice in PBS. Collected cell pellets were resuspended in 0.2 M sucrose solution and freeze-thawed three times before being homogenised using a syringe and 25 G needle. Lysed cells were centrifuged at 17,000 g for 30 min at 4°C. The supernatant was collected, and protein quantified using Bradford reagent.
(§2) Acid ceramidase activity assay
(§3) To measure acid ceramidase activity, an assay previously described by Bedia et al., (2010) was miniaturised to a 384-well format. The enzymatic assay was carried out in black flat bottom 384-well plates. Briefly, if using cell lysate, each well contained 7.45 µL assay buffer (25 mM sodium acetate pH 4.5) and 0.05 µL 4 mM RBM14-C12 (Avanti, USA) in ethanol (20 µM final substrate concentration), 2 µg protein in 2.4 µL 0.2 M sucrose, and 0.1 µL compound (control wells contained 0.1 µL DMSO). If using purified acid ceramidase protein (Peak Proteins), the experimental set up was similar, but 100 nM protein was used, and the assay buffer contained 25 mM sodium acetate pH 4.5, 0.1% Pluronic F-127, 0.5 mM EGTA, 0.05% BSA, 1 mM TCEP. Blank wells contained the same reaction mixes but without the protein samples. The reaction started upon addition of the protein sample. The plate was incubated at 37°C for 3 h. The reaction was stopped upon addition of 10 µL fresh detection mix (2.5 mg/mL NaIO4 in 100 mM glycine/NaOH buffer pH 10.6) and the plate incubated for […]

acid ceramidase [2] = biological target: T1, acid ceramidase; test: Preincubation acid ceramidase activity assay; type: biochemical; conditions: pre-incubated at 0, 1 and 3 h at IC50 concentration, 37°C
From the text: A partially degraded sample was purified by reverse-phase chromatography to isolate the DMSO-addition species. Although only a small amount of material was isolated, ^1H NMR spectroscopic analysis was consistent with the proposed structure (Scheme 3). The ^1H NMR data, in particular, were in line with that reported for a related compound (3f, see Supplementary Material). Such reactivity has been reported between N-pivaloyloxybenzamides and sulfoxides in the presence of an iron catalyst. The decomposition reaction to form a sulfoximine reported in this paper should be of interest to the synthetic community as it proceeds cleanly at ambient temperature without the need for reagents nor a catalyst; however, further optimisation of the reaction is beyond the scope of this paper.
as §1, with “Lysed cells were centrifuged at 17,000 g for 30 min at 4°C.” left out, “reagent. […]” for “reagent.”
To measure acid ceramidase activity, an assay previously described by Bedia et al., (2010) was miniaturised to a 384-well format. […] Fluorescence was measured using a microplate reader (PHERAstar FSX; BMG Labtech) at excitation and emission wavelengths of 350 nm and 450 nm […]

[3] = Stability in DMSO / d6-DMSO at room temperature (LCMS, 1H and 19F NMR); type: physicochemical; conditions: for stability of DMSO stock solution (in words): LCMS
Method: Key to this was running LCMS analysis on a d6-DMSO NMR sample that was left at room temperature for 6 weeks. Despite also degrading into the carboxylic acid 12, the mass of the other species was different by +6 Daltons compared to the non-deuterated sample. […] To monitor the speed of degradation, a fresh sample was analysed periodically by ^1H and ^19F NMR spectroscopy (Figure 4).

acid ceramidase [4] = biological target: T1, acid ceramidase; test: HTS acid ceramidase assay (modified reported assay, without Saposin D); type: biochemical
From the text: Despite continuing advances in structure-driven research, High-Throughput Screening (HTS) is still a valuable resource to find novel chemical starting points in drug discovery. Recently, the Medicines Discovery Institute initiated an HTS looking for small-molecule inhibitors of acid ceramidase, a lysosomal enzyme. […] This substantial increase in potency can be explained by the fact that to function properly, acid ceramidase requires a co-factor present in cells which was not present in the original HTS assay, Saposin D [4].

[5] = Reactivity with the amino acid cysteine (LCMS); type: physicochemical; conditions: LCMS analysis
From the text: Almost all reported small-molecule inhibitors of acid ceramidase are covalent in their mechanism of action by reaction with cysteine 143 [14, 15, 16, 17, 18, 19, 20, 21, 22]. In some cases, the covalent warhead itself is linked to promiscuity and intrinsic chemical instability. To probe whether 1 was chemically reactive in this way, a sample was stirred with the amino acid cysteine.

acid ceramidase [6] = biological target: T1, acid ceramidase; test: purified protein acid ceramidase inhibition assay; type: biochemical; conditions: freshly synthesised sample
Method: as §2, §3

[7] = cell lysate assay, supplied (HTS library) samples, read-out: IC50

O=C(Nc1ccc(OC(F)F)cc1)Nc1ccc(OC(F)F)cc1 [compound 8]
IC50 (acid ceramidase [1]; cell lysate assay, read-out: IC50): ~100000 nM

O=C(O)c1ccc(N2CCCCCC2)c([N+](=O)[O-])c1 [compound 12]
activity (in words) (acid ceramidase [1]; cell lysate assay): inactive

O=C(NOC(=O)c1ccc(N2CCCCCC2)c([N+](=O)[O-])c1)c1ccc(OC(F)F)cc1 [compound 1]
inhibition after pre-incubation (in words) (acid ceramidase [2]): time-dependent inhibition pattern expected of a covalent inhibitor | stability of DMSO stock solution (in words) [3]: slowly degraded into two species | estimated half-life ([3]; d6-DMSO, room temperature, 1H and 19F NMR integrations against time): just over two days | IC50 (acid ceramidase [1]; cell lysate assay with addition of EDTA, read-out: IC50): 7 nM | IC50 (acid ceramidase [1]; cell lysate assay with addition of N,N,N′,N′-tetrakis(2-pyridinylmethyl)-1,2-ethanediamine (Zn2+ chelator), read-out: IC50): 8 nM | IC50 (acid ceramidase [1]; cell lysate assay, freshly synthesised sample, read-out: IC50): 3.2 nM | IC50 (acid ceramidase [1]; [7]): 11 nM | IC50 (acid ceramidase [4]; library sample): 340 nM | stability when stirred with cysteine (in words) [5]: slowly decomposed into two main chemical species | IC50 (acid ceramidase [6]): 163 nM

O=C=Nc1ccc(OC(F)F)cc1 [compound 7]
stability of DMSO stock solution (in words) [3]: fully hydrolysed to 8 | IC50 (acid ceramidase [1]): ~100000 nM

CC(C)(C)c1ccc(C(=O)NOC(=O)c2ccc(Cl)c(Cl)c2)cc1 [compound 2]
IC50 (acid ceramidase [1]; [7]): 237 nM | inhibition (in words) (acid ceramidase [4]; Figure 1): moderate inhibition

CS(C)(=O)=NC(=O)c1ccc(OC(F)F)cc1 [compound 13]
activity (in words) (acid ceramidase [1]; cell lysate assay): no activity
